Measured values published in patent US4025631A, “Dihydroquinoline derivatives of antioxidant activity” (priority 1971, dated 1977).
Counter-ions that a name gives are not always drawn.

Tests used:
[1] = solubility; type: physicochemical
[2] = cited from earlier work
[3] = tested on: encephalomalacia of poultries; settings: versus EMQ; cited from earlier work
[4] = antioxidant effect on fish-meal samples, Warburg apparatus; settings: 40 g. of fish meal + 0.04 g. of antioxidant; for Oxygen Uptake (decrease of O2 pressure, mmHg): 29° C., control 19.5; for Peroxide Number (calculated for 1 g. of fish meal): treated with oxygen, control 7.83
Method: The antioxidant effect of the new substances shown in foodstuffs and nutriments was investigated on fish-meal samples. […] In these experiments the oxygen uptake of fish-meal samples containing the various antioxidants was determined in a Warburg apparatus at 29° C., and the results were compared with those measured on samples containing no antioxidant. The peroxide number of samples treated with oxygen was also determined.

[5] = tested on: animals; settings: longer period, dose of 0.56 g./kg.; cited from earlier work
[6] = LD50 (Korber method, modified by Cornfield); settings: in vivo
Excerpt: The LD50 values of BHT and EMQ are, on the other hand, the following -- measured according to the Korber method, modified by Cornfield: […]

[7] = tested on: rats; settings: 14 days, 0.50 g./kg.; cited from earlier work
[8] = tested on: serum cholesterol level; test: serum cholesterol of cholesterol-treated rabbits; type: in vivo; settings: 1 g. of cholesterol per day, 0.06 g./kg. XAX daily for 70 or 105 days
Method: Due to this fact they can also be used for the prophylaxis and treatment of arteriosclerois. This effect of the new substances was investigated on rabbits treated with 1 g. of cholesterol per day. The animals were treated for 70 or 105 days with daily doses of 0.06 g./kg. of XAX. […] Using the hitherto-known antioxidants, this very favorable and important effect could not be reached at all.

[9] = tested on: rats; settings: rat, in vivo
Excerpt: (§1) Since the novel compounds are completely nontoxic, they can be used with great advantage in animal husbandry and in the food industry, as well as in therapy. On the basis of the investigations carried out on the acute and chronic toxicity of these new active agents, it can be stated that they are completely free of the disadvantages of the hitherto-known antioxidants mentioned above, first of all as regards their use in therapy.

[10] = tested on: malignant tumors; test: appearance of malignant tumors in animals irradiated with minimum doses for a long period; type: in vivo; settings: minimum irradiation doses for a long period, versus irradiated controls without XAX
Excerpt: Another important and unexpected property of the new substances is that they exert radiosensibilizing effect. […] On the basis of this property, the new compounds can also be used for the potentiating of the effect of irradiation therapy.

[11] = tested on: rats; test: continuous administration of XAX for three weeks / 90 days; type: in vivo
Excerpt: as §1

Q: With `CC1=CC(C)(C)Nc2ccc(Cc3ccc4c(c3)C(C)=CC(C)(C)N4)cc21` [Example 9, bis-(2,2,4-trimethyl-1,2-dihydroquinolyl-6)-methane] as the molecule, how does the “solubility in water and alcohol” value [1] read?
A: The value was “soluble in water and alcohol”.

Q: For `CC1=CC(C)(C)Nc2ccc(Cc3ccc4c(c3)C(C)=CC(C)(C)N4)cc21` [sulfuric acid salt of XAX], which “solubility in water and alcohol” value [1] is on record?
A: Its value is “soluble in water and alcohol”.

Q: Which “solubility in water and alcohol” value [1] does the source give for `CC1=CC(C)(C)Nc2ccc(Cc3ccc4c(c3)C(C)=CC(C)(C)N4)cc21` [Example 8, bis-(2,2,4-trimethyl-1,2,-dihydroquinolyl-6)-methane] here?
A: The value was “well soluble in water and alcohol”.

Q: What does the source list for `Cc1cc(C(C)(C)C)c(O)c(C(C)(C)C)c1` [BHT]?
A: anophthalmia (teratogeneous effect) ([2]; aftereffect): the appearance of anophthalmia was observed; cholesterol-synthesis in the liver and endogenous epoxidation ([2]; in vivo): the cholesterol-synthesis in the liver as well as the endogenous epoxidation increases; endogenous production of fatty acids and β-oxidation ([2]; in vivo): stimulates the endogenous production of fatty acids and β-oxidation; gestation period ([2]; in vivo): increases the gestation period; activity in encephalomalacia of poultries [3]: far lower activity than EMQ; Oxygen Uptake (decrease of O2 pressure, mmHg) [4]: 16.5 mmHg; Peroxide Number (calculated for 1 g. of fish meal) [4]: 3.42

Q: With `CCOc1ccc2c(c1)C(C)=CC(C)(C)N2` [EMQ, 6-ethoxy-2,2,4-trimethyl-1,2-dihydroquinoline] as the molecule, how does the appetite [5] read?
A: The appetite was “may cause appetite lowering”.

Q: And the gain in weight [5]?
A: Its gain in weight is “lowers the gain in weight”.

Q: What about the LD50 [6] of the same molecule?
A: The LD50 was 2230 ± 300 mg/kg.

Q: And the “Oxygen Uptake (decrease of O2 pressure, mmHg)” value [4]?
A: Its value is 23.5 mmHg.

Q: What about the “Peroxide Number (calculated for 1 g. of fish meal)” value [4] of the same molecule?
A: Its value is 2.87.

Q: What about the “appetite of the animals” value [7] of the same molecule?
A: The value was “the appetite of the animals was lowered”.

Q: And the “size of the liver” value [7]?
A: The value was “an increase in size of the liver was observed”.

Q: For `CC1=CC(C)(C)Nc2ccc(Cc3ccc4c(c3)C(C)=CC(C)(C)N4)cc21` [XAX, bis-(2,2,4-trimethyl-1,2-dihydroquinolyl-6)-methane], which “cholesterol level of the blood” value [8] is on record?
A: Its value is “the cholesterol level of the blood decreased to a great extent”.

Q: And the toxic symptoms [9]?
A: The toxic symptoms was “no toxic symptoms”.

Q: And the “appearance of malignant tumors” value [10]?
A: The value was “could be suppressed”.

Q: What about the “Oxygen Uptake (decrease of O2 pressure, mmHg)” value [4] of the same molecule?
A: Its value is 11.5 mmHg.

Q: And the “Peroxide Number (calculated for 1 g. of fish meal)” value [4]?
A: The value was 1.54.

Q: And the “damaging of tissues or cells” value ([11]; daily doses of 0.25 mg./kg., three weeks)?
A: The value was “no damaging of tissues or cells could be observed”.

Q: And the “weight gain and blood picture” value ([11]; rats, 90 days, same dose)?
A: Its value is “Neither the weight gain nor the blood picture of the animals was harmfully affected”.

Q: What about the “weight gain of some organs” value ([11]; rats, 90 days, same dose, versus untreated animals) of the same molecule?
A: Its value is “no excessive weight gain of some organs of the animals could be observed”.

Q: And the harmful effects ([11]; rats, same dose (0.25 mg./kg. daily), 90 days)?
A: Its harmful effects is “No harmful effects could be observed”.
